Reference: patent US7820865B2, “Photolatent systems” (Ciba Corporation, priority 2005, dated 2010)

melting point	Structure (SMILES)
99 to 100 °C	COc1cc(C=O)ccc1OCC(=O)c1cc(C(C)(C)C)c(O)c(C(C)(C)C)c1 [Compound 101, 4-[2-(3,5-di-tert-butyl-4-hydroxyphenyl)-2-oxo-ethoxy]-3-methoxy-benzaldehyde]
111 to 114 °C	CC(C)(C)c1cc(C(=O)COc2ccc(Cl)cc2Oc2ccc(Cl)cc2Cl)cc(C(C)(C)C)c1O [Compound 104, 2-[4-chloro-2-(2,4-dichloro-phenoxy)-phenoxy]-1-(3,5-di-tert-butyl-4-hydroxyphenyl)-ethanone]
106 to 107 °C	CCC(C)(C)c1cc(C(=O)COc2ccc(C=O)cc2OC)cc(C(C)(C)CC)c1O [Compound 107, 4-{2-[3,5-bis(1,1-dimethyl-propyl)-4-hydroxy-phenyl]-2-oxo-ethoxy}-3-methoxy-benzaldehyde]
73 to 75 °C	CCOCC(=O)c1cc(C(C)(C)C)c(O)c(C(C)(C)C)c1 [Compound 113, 2-ethoxy-1-(4-hydroxy-3,5-di-tert-butylphenyl)-ethanone]
64 °C	CCOC(C)C(=O)c1cc(C(C)(C)C)c(O)c(C(C)(C)C)c1 (centres unmarked) [Compound 115, 1-(3,5-di-tert-butyl-4-hydroxyphenyl)-2-ethoxy-propan-1-one]
50 °C	CC(C)=CCC/C(C)=C/COCC(=O)c1cc(C(C)(C)C)c(O)c(C(C)(C)C)c1 [Compound 116, 1-(3,5-di-tert-butyl-4-hydroxyphenyl)-2-[(E)-3,7-dimethyl-octa-2,6-dienyloxy]-ethanone]
127 to 128 °C	CC(C)c1cc(C(=O)CI)cc(C(C)C)c1O [Compound 201, 1-(4-hydroxy-3,5-di-isopropylphenyl)-2-iodo-ethanone]
88 to 89 °C	CC(C)(C)c1cc(C(=O)CI)cc(C(C)(C)C)c1O [Compound 202, 1-(4-hydroxy-3,5-di-tert-butylphenyl)-2-iodo-ethanone]
76 to 77 °C	CCC(C)(C)c1cc(C(=O)CI)cc(C(C)(C)CC)c1O [Compound 204, 1-(3,5-bis(1,1-dimethylpropyl)-4-hydroxyphenyl)-2-iodo-ethanone]
141 °C	CC(I)C(=O)c1cc(C(C)(C)C)c(O)c(C(C)(C)C)c1 (centres unmarked) [Compound 205, 1-(4-hydroxy-3,5-tert-butylphenyl)-2-iodo-propane-1-one]

The next lines start with the compound.

Structure (SMILES)	melting point
CCOCC(=O)c1cc(C(C)C)c(O)c(C(C)C)c1	97 to 98 °C
COc1cc(C=O)ccc1OCC(=O)c1cc(C2CCCCC2)c(O)c(C2CCCCC2)c1 [Compound 103, 4-[2-(3,5-di-cyclohexyl-4-hydroxyphenyl)-2-oxo-ethoxy]-3-methoxy-benzaldehyde]	163 to 164 °C
Cc1ccc(OCC(=O)c2cc(C(C)C)c(O)c(C(C)C)c2)cc1 [Compound 105, 1-(4-hydroxy-3,5-di-isopropylphenyl)-2-p-tolyloxy-ethanone]	124 to 125 °C
CC(C)=CCC/C(C)=C/COCC(=O)c1cc(C(C)C)c(O)c(C(C)C)c1 [Compound 108, 2-[(E)-3,7-dimethyl-octa-2,6-dienyloxy]-1-(4-hydroxy-3,5-di-isopropyl-phenyl)-ethanone]	70 to 71 °C
CC(C)=CCCC(C)CCOCC(=O)c1cc(C(C)C)c(O)c(C(C)C)c1 (centres unmarked) [Compound 109, 2-(3,7-dimethyl-oct-6-enyloxy]-1-(4-hydroxy-3,5-di-isopropyl-phenyl)-ethanone]	37 to 39 °C
CC(C)c1cc(C(=O)CO[C@@H]2C[C@H](C)CC[C@H]2C(C)C)cc(C(C)C)c1O [Compound 110, 1-(4-hydroxy-3,5-di-isopropylphenyl)-2-[(1R,2S,5R)-2-isopropyl-5-methyl-cyclohexyloxy]-ethanone]	83 to 84 °C
O=C(CI)c1cc(C2CCCCC2)c(O)c(C2CCCCC2)c1 [Compound 203, 1-(4-hydroxy-3,5-di-cyclohexyphenyl)-2-iodo-ethanone]	183 to 185 °C
